Columns and labels:
[1] = system: Aberrant Crypt Foci (ACF); assay: DMH-induced CRC model of aberrant crypt foci (ACF) in rats (Example 1); type: in vivo, Wistar rats; settings: DMH 30 mg/kg rats; oral gavage; colons stained 60 days after DMH; Coltect 150 mg/kg, 5-ASA 50 mg/kg
Protocol: Age- and sex-matched 23 Wistar rats were purchased from the animal facilities at the Tel-Aviv Sourasky Medical Center (TASMC). The rats were injected subcutaneously twice a week for two weeks with 0.3 ml of 30 mg/kg body weight DMH (Sigma-Aldrich, Israel) dissolved in PBS, and groups (n=5) were randomly divided as follows (Table 1): The Coltect mixture was dissolved in a solution of DMSO (50%) and tap water. The solution was administered to the rats by oral gavage for five days, starting at the first day of DMH injections. During the experiment, the rats were weighed twice a week. Sixty days after DMH injections the rats were sacrificed by CO2 flow. The colons were removed and flushed with isotonic saline solution, opened longitudinally, cut into three parts of equal length, and labeled as proximal, middle and distal segments. The colons were laid open on a Wattman paper and fixed flat in 4% buffered formalin solution. The ACF were visualized and counted by using methylene blue staining (0.2% solution) and photographed. […] The number and multiplicity of ACF for each colonic segment were evaluated and recorded. The number and multiplicity of ACF were recorded separately for each segment. To determine multiplicity of ACF, the number of crypts in each focus was defined and recorded.

[2] = DSS-induced IBD model in mice (Example 2); type: in vivo, C57BL mice; settings: first experiment (FIG. 4A); DSS 2.5%; Coltect 150 mg/kg, 5-ASA 50 mg/kg oral gavage 7 days
Protocol: Age- and sex-matched C57BL 5-weeks old female mice were obtained from Harlan Laboratories, Israel. […] Four mice received saline (2.5%) and served as the negative control group. The mice were randomly divided into groups (n=8) and received the corresponding treatment starting from the first day for 7 days (Table 3). The treatments were given in doses of 0.5 ml of tap water with 2% DMSO by oral gavage. The following doses were used: Coltect-150 mg/kg body weight; 5-ASA-50 mg/kg body weight. All mice were sacrificed 7 days after the enema, their spleen and colon were removed, fixed in 10% formalin for histological evaluation and parts were frozen at […] for later examination. For macroscopic injury evaluation a revised colonic damage scoring system was used as described by Morris et al. Thus, the severity of colitis was determined based on the following parameters: • 1. Disease Activity Index (DAI): weight loss, gross bleeding, stool consistency (Table 2)—were daily recorded. • 2. Spleen weight. • 3. Colon length. • 4. Histological score. For histological injury evaluation tissues fixed in 10% formalin, were embedded in paraffin wax and cut. 4 μm sections were histologically stained and evaluated by light microscopy for ulceration and inflammation. [table]

[3] = TNBS-induced IBD model in rats (Example 3); type: in vivo, Wistar rats; settings: TNBS-induced model (FIG. 6); compared to negative and positive controls
Protocol: One day before the experiment the rats were weighted, marked according to the groups, and fasted for 24 hours (for colon emptying). At the day of the experiment the rats were anesthetized by an intra-peritoneal injection of halothene and colitis was induced by intra-rectal administration of 0.4 ml of a 25 mg/ml TNBS solution dissolved in 50% ethanol using an 8-cm long rubber catheter. Then, 0.4 ml of air was injected and the rats were kept in a Trendelenburg position for 30 sec to ensure that all TNBS solution left the catheter. Three rats received intra-rectal administration of saline and served as the negative control group. Coltect, 5-ASA, or their combination, were delivered by daily gavage of 0.5 ml solution starting from day 0. All rats were sacrificed after 7 days. Their 10-cm distal colon was removed, opened longitudinally along the anti-mesenteric side and was gently washed with ice-cold saline in order to remove all luminal content. Colon wet weight was weighed and the colonic injury was immediately examined under a stereomicroscope and the visible damage was scored, then part of the colons was placed in 10% formalin for histological evaluation and parts were frozen at […] for later evaluation. The induction and severity of colitis were evaluated by measuring: • 1. Daily body weight. • 2. Colon weight. • 3. Macro-Histological score damage.

[4] = system: Aberrant Crypt Foci (ACF); assay: DMH-induced ACF formation, Coltect versus its ingredients (Example 5a); type: in vivo, Wistar rats; settings: DMH 50 mg/kg rats; daily oral gavage 2 weeks; sacrificed after 2 months (FIG. 10A)
Protocol: In these experiments the concentration of the ingredients used was determined based on their ratio in the Coltect mixture. As used in the above experiments, the Coltect concentration administered to the model animals was 150 mg/kg. Since a ratio of ⅔ Curcumin to ⅓ Green Tea was used in the Coltect mixture, the administered Curcumin concentration was 100 mg/kg and the Green tea concentration was 50 mg/kg. The Curcumin to Selenium ratio in the Coltect mixture was 500 mg Curcumin to 0.1 mg Selenium, therefore, the administered Selenium concentration was 0.02 mg/kg body weight. The final administered concentrations of the Coltect components are presented in Table 6 below: Forty seven age- and sex-matched Wistar rats were obtained from the animal facility at TASMC. The rats were injected subcutaneously twice a week for two weeks with 0.3 ml of 50 mg/kg body weight DMH (Sigma-Aldrich, Israel) dissolved in PBS, and groups were randomly divided as shown in Table 7. The Coltect compound and its components were daily administered simultaneously for 2 weeks by oral gavage. The rats were sacrificed after 2 months. Reference is now made to FIG. 9 presenting Methylene blue ACF staining performed according to the protocol described in the above Example 1, of normal mucosa (A) aberrant crypt foci containing small ACF with 1-3 crypts (B) and large ACF with more than three crypts (C).

[5] = DSS-induced colitis in mice, Coltect versus its components (Example 5b); type: in vivo, C57BL mice
Protocol: In these experiments the concentration of the ingredients used was determined based on their ratio in the Coltect mixture. As used in the above experiments, the Coltect concentration administered to the model animals was 150 mg/kg. Since a ratio of ⅔ Curcumin to ⅓ Green Tea was used in the Coltect mixture, the administered Curcumin concentration was 100 mg/kg and the Green tea concentration was 50 mg/kg. The Curcumin to Selenium ratio in the Coltect mixture was 500 mg Curcumin to 0.1 mg Selenium, therefore, the administered Selenium concentration was 0.02 mg/kg body weight.
Age- and sex-matched C57BL 5-weeks old female mice were obtained from Harlan Laboratories, Israel. After one week of acclimation, the mice (n=52) were treated with 2.5% DSS administered in the drinking water for 5 days ad libitum, followed by two days of tap water. The treatments were given in doses of 0.3 ml of tap water with 2% DMSO by oral gavage. The mice were randomly divided into 8 sub-groups (n=6) and a control group (n=4) treated as described in Table 8.

For `Nc1ccc(O)c(C(=O)O)c1` [5-ASA, 5-aminosalicylic acid], the “Number of crypts in treated colons: 1-3 crypts” value [1] was 28 ± 4.1, the “Number of crypts in treated colons: >4 crypts” value [1] was 11.6 ± 3.9 and the DAI score [2] was “relatively higher DAI scores”. The “Changes in body weight” value [3] was “no substantial changes in body weight”.

With `C[Se]CC[C@H](N)C(=O)O` [Selenium, Selenomethionine] the “Reduction in number of ACFs relative to the positive control” value [4] was “about 30%”, the DAI score ([5]; DSS 2.5% mice (FIG. 11), oral gavage) was 2.33±1.33 and the “Colon length, in words” value ([5]; DSS-induced mice, day seven (FIG. 12)) was “longer colons”.

— patent US20100303904A1, “TABLET WITH REMEDIAL COMPOSITION AND METHODS FOR TREATING MEDICAL DISORDERS AND AILMENTS” (BIO-PRO MEDICAL LTD., priority 2007, published 2010)
